Four molecules from patent US8389534B2, “Pyrimidine non-classical cannabinoid compounds and related methods of use” (The University of Tennessee Research Foundation, priority 2008, dated 2013) can be followed below.

One may read the EC50 as the concentration that produces a half-maximal response. By melting point is commonly meant the temperature of the solid-liquid transition.

In data set [1] the test system is glioblastoma brain cancer cell line LN-229. Nature of the data set: Cytotoxicity assay (CCK8 viability). Type of data set: cell-based. To be noted: Homo sapiens, cytotoxicity against LN-229 cells, 18 hours incubation. As for the experimental part:
Cytoxocity assay: Cells were seeded on a 96 well polystyrene plate in full serum media at a density of 75,000 cells per milliliter, 100 μL per well. Plates were incubated at 37° C. and 5% CO2 for 24 hours to allow cell attachment. Drug solutions were prepared in DMSO at 100× concentration and mixed 1:100 in 1% FBS media to yield the desired concentration. Drug-media mixtures were vortexed immediately prior to administration to cells. Full serum media was removed and replaced with drug-media mixtures and incubated for 18 hours. 10 μL of Cell Counting Kit 8 (CCK8, Dojindo# CK04-11) was added to each well to colormetrically assess viability. After 2-4 hours of incubation with the CCK8 dye, absorbance was read at 450 nm by a BioTek Synergy 2 plate reader.
The cytotoxicity of selected compounds against the glioblastoma brain cancer cell line LN-229 is depicted in Table 1.

For `CCCCCCC(C)(C)c1nc(O)c(-c2cccc(C)c2)c(O)n1` [Compound 8j, 2-(2-Methyloctan-2-yl)-5-m-tolylpyrimidine-4,6-diol], in data set [1], the EC50 came out at 55.4 µM.

As to `CC(C)(c1ccccc1)c1nc(O)c(-c2cc(Cl)cc(Cl)c2)c(O)n1` [Compound 8h, 5-(3,5-Dichlorophenyl)-2-(2-phenylpropan-2-yl)pyrimidine-4,6-diol], the EC50 in data set [1] was 51.8 µM.

As to `CC(C)(c1nc(O)c(-c2cc(Cl)cc(Cl)c2)c(O)n1)C1CCCCC1` [Compound 8g, 2-(2-Cyclohexylpropan-2-yl)-5-(3,5-dichlorophenyl)pyrimidine-4,6-diol], the EC50 in data set [1] came to 23.5 µM.

As for `Oc1nc(Cc2ccccc2)nc(O)c1-c1ccccc1`, the melting point was determined as 336.6 °C.
